We go through 35 molecules from patent US10766894B2, “Aza-indazole compounds for use in tendon and/or ligament injuries” (NOVARTIS AG, priority 2016, dated 2020).

The test system of the assay is mouse immortalized TT-D6 Scx-luciferase (ScxL) cell line; transcriptional activation of Scleraxis (Scx) gene. Description: SCX-LUC in vitro assay (scleraxis promoter luciferase reporter). Format: cell-based. Particulars: Mus musculus, 96 h; Examples table; TT-D6 Scx-luciferase cells, 1 ng/ml TGFβ1, four days; read-out: Scx-Luc (EC50 μM). (Reporter assays use an easily measured gene product as a stand-in for the process of interest.)
Usually EC50 stands for the midpoint of the concentration-response curve. As for `CC1CCC(NS(=O)(=O)c2ccc(-c3ccc4[nH]nc(N)c4n3)c(Cl)c2)CC1` (centres unmarked) [Example 36, 4-(3-amino-1H-pyrazolo[4,3-b]pyridin-5-yl)-3-chloro-N-(4-methylcyclohexyl)benzenesulfonamide], the EC50 worked out at 0.414 µM.

As for `Cc1cc(S(=O)(=O)N2CC(F)(F)C[C@H]2CO)ccc1-c1ccc2[nH]nc(N)c2n1` [Example 37, (S)-(1-((4-(3-amino-1H-pyrazolo[4,3-b]pyridin-5-yl)-3-methylphenyl)sulfonyl)-4,4-difluoropyrrolidin-2-yl)methanol], the EC50 was found to be 0.593 µM.

As to `Cc1cc(S(=O)(=O)NC2CCCCC2)ccc1-c1ccc2[nH]nc(N)c2n1` [Example 39, 4-(3-amino-1H-pyrazolo[4,3-b]pyridin-5-yl)-N-cyclohexyl-3-methylbenzenesulfonamide], the EC50 was 0.473 µM.

As to `Nc1n[nH]c2ccc(-c3ccc(S(=O)(=O)Nc4cccc(F)c4)cc3Cl)nc12` [Example 40], the EC50 is 0.416 µM.

Take `Nc1n[nH]c2ccc(-c3ccc(NS(=O)(=O)c4cccc(F)c4)cc3Cl)nc12` [Example 41, N-(4-(3-amino-1H-pyrazolo[4,3-b]pyridin-5-yl)-3-chlorophenyl)-3-fluorobenzenesulfonamide]: the EC50 stood at 2.25 µM.

As to `Cc1cc(NS(=O)(=O)c2cccc(Cl)c2)ccc1-c1ccc2[nH]nc(N)c2n1` [Example 42, N-(4-(3-amino-1H-pyrazolo[4,3-b]pyridin-5-yl)-3-methylphenyl)-3-chlorobenzenesulfonamide], the EC50 amounted to 2 µM.

With `Nc1n[nH]c2ccc(-c3ccc(NS(=O)(=O)c4ccc(Cl)c(Cl)c4)cc3Cl)nc12` [Example 43, N-(4-(3-amino-1H-pyrazolo[4,3-b]pyridin-5-yl)-3-chlorophenyl)-3,4-dichlorobenzenesulfonamide], the EC50 was 3.31 µM.

For `Nc1n[nH]c2ccc(-c3ccc(S(=O)(=O)NC4CCCC(O)C4)cc3Cl)nc12` (centres unmarked) [Example 44, 4-(3-amino-1H-pyrazolo[4,3-b]pyridin-5-yl)-3-chloro-N-(3-hydroxycyclohexyl)benzenesulfonamide], the EC50 worked out at 4.12 µM.

As for `Nc1n[nH]c2ccc(-c3ccc(S(=O)(=O)N[C@H]4CC[C@H](O)CC4)cc3Cl)nc12` [Example 45, 4-(3-amino-1H-pyrazolo[4,3-b]pyridin-5-yl)-3-chloro-N-((1r,4r)-4-hydroxycyclohexyl)benzenesulfonamide], the EC50 is 4.73 µM.

Take `Cc1cc(S(=O)(=O)N[C@H]2C[C@@H](CO)C2)ccc1-c1ccc2[nH]nc(N)c2n1` [Example 47, 4-(3-amino-1H-pyrazolo[4,3-b]pyridin-5-yl)-N-((1s,3s)-3-(hydroxymethyl)cyclobutyl)-3-methylbenzenesulfonamide]: the EC50 was found to be 5.34 µM.

As for `Nc1n[nH]c2ccc(-c3ccc(S(=O)(=O)N[C@H]4CC[C@@H](O)CC4)cc3Cl)nc12` [Example 48, 4-(3-amino-1H-pyrazolo[4,3-b]pyridin-5-yl)-3-chloro-N-((1s,4s)-4-hydroxycyclohexyl)benzenesulfonamide], the EC50 amounted to 2.02 µM.

As to `Nc1n[nH]c2ccc(-c3ccc(S(=O)(=O)Nc4ccccc4)cc3F)nc12` [Example 49, 4-(3-amino-1H-pyrazolo[4,3-b]pyridin-5-yl)-3-fluoro-N-phenylbenzenesulfonamide], the EC50 turned out to be 0.87 µM.

As to `Nc1n[nH]c2ccc(-c3ccc(S(=O)(=O)N4CC5CCCC5C4)cc3Cl)nc12` (centres unmarked) [Example 51, 5-(2-chloro-4-((hexahydrocyclopenta[c]pyrrol-2(1H)-yl)sulfonyl)phenyl)-1H-pyrazolo[4,3-b]pyridin-3-amine], the EC50 turned out to be 2.39 µM.

Take `Nc1n[nH]c2ccc(-c3ccc(S(=O)(=O)Nc4cccc(Cl)c4F)cc3Cl)nc12` [Example 52, 4-(3-amino-1H-pyrazolo[4,3-b]pyridin-5-yl)-3-chloro-N-(3-chloro-2-fluorophenyl)benzenesulfonamide]: the EC50 came out at 1.1 µM.

`Nc1n[nH]c2ccc(-c3ccc(NS(=O)(=O)c4ccc5c(c4)NCCO5)cc3Cl)nc12` [Example 53, N-(4-(3-amino-1H-pyrazolo[4,3-b]pyridin-5-yl)-3-chlorophenyl)-3,4-dihydro-2H-benzo[b][1,4]oxazine-6-sulfonamide]: the EC50 was found to be 2.74 µM.

On to `Cc1cc(S(=O)(=O)N[C@H]2CC[C@H](O)CC2)ccc1-c1ccc2[nH]nc(N)c2n1` [Example 54, 4-(3-amino-1H-pyrazolo[4,3-b]pyridin-5-yl)-N-((1r,4r)-4-hydroxycyclohexyl)-3-methylbenzenesulfonamide], for which the EC50 was 1.13 µM.

For the molecule `NC(=O)[C@H]1C[C@@H](F)CN1S(=O)(=O)c1ccc(-c2ccc3[nH]nc(N)c3n2)c(Cl)c1` [Example 55, (2R,4R)-1-((4-(3-amino-1H-pyrazolo[4,3-b]pyridin-5-yl)-3-chlorophenyl)sulfonyl)-4-fluoropyrrolidine-2-carboxamide], the EC50 amounted to 6.16 µM.

Take `Nc1n[nH]c2ccc(-c3ccc(S(=O)(=O)Nc4cccc(Cl)c4Cl)cc3Cl)nc12` [Example 56, 4-(3-amino-1H-pyrazolo[4,3-b]pyridin-5-yl)-3-chloro-N-(2,3-dichlorophenyl)benzenesulfonamide]: the EC50 came out at 1.64 µM.

With `Nc1n[nH]c2ccc(-c3ccc(S(=O)(=O)N4CC[C@@H](O)C4)cc3Cl)nc12` [Example 57, (R)-1-((4-(3-amino-1H-pyrazolo[4,3-b]pyridin-5-yl)-3-chlorophenyl)sulfonyl)pyrrolidin-3-ol], the EC50 stood at 0.633 µM.

In the case of `C[C@]1(O)CC[C@H](NS(=O)(=O)c2ccc(-c3ccc4[nH]nc(N)c4n3)c(Cl)c2)CC1` [Example 58, 4-(3-amino-1H-pyrazolo[4,3-b]pyridin-5-yl)-3-chloro-N-((1r,4r)-4-hydroxy-4-methylcyclohexyl)benzenesulfonamide], the EC50 was determined as 1.51 µM.

Regarding `Nc1n[nH]c2ccc(-c3ccc(NS(=O)(=O)[C@@H]4CCCC[C@@H]4O)cc3Cl)nc12` [Example 60, (1R,2S)—N-(4-(3-amino-1H-pyrazolo[4,3-b]pyridin-5-yl)-3-chlorophenyl)-2-hydroxycyclohexane-1-sulfonamide], the EC50 was found to be 3.04 µM.

Take `COc1ccc(S(=O)(=O)Nc2ccc(-c3ccc4[nH]nc(N)c4n3)c(Cl)c2)cc1NC(C)=O` [Example 61, N-(5-(N-(4-(3-amino-1H-pyrazolo[4,3-b]pyridin-5-yl)-3-chlorophenyl)sulfamoyl)-2-methoxyphenyl)acetamide]: the EC50 was 1.54 µM.

`Nc1n[nH]c2ccc(-c3ccc(NS(=O)(=O)c4cccc(C(F)(F)F)c4)cc3Cl)nc12` [Example 62, N-(4-(3-amino-1H-pyrazolo[4,3-b]pyridin-5-yl)-3-chlorophenyl)-3-(trifluoromethyl)benzenesulfonamide]: the EC50 worked out at 1.3 µM.

For the molecule `Cc1cc(S(=O)(=O)N[C@H]2C[C@@H](O)C2)ccc1-c1ccc2[nH]nc(N)c2n1` [Example 64, 4-(3-amino-1H-pyrazolo[4,3-b]pyridin-5-yl)-N-((1s,3s)-3-hydroxycyclobutyl)-3-methylbenzenesulfonamide], the EC50 was 0.162 µM.

For `Cc1cc(S(=O)(=O)NC2CCCC(O)C2)ccc1-c1ccc2[nH]nc(N)c2n1` (centres unmarked) [Example 65, 4-(3-amino-1H-pyrazolo[4,3-b]pyridin-5-yl)-N-(3-hydroxycyclohexyl)-3-methylbenzenesulfonamide], the EC50 stood at 0.122 µM.

As to `COc1cccc(S(=O)(=O)Nc2ccc(-c3ccc4[nH]nc(N)c4n3)c(Cl)c2)c1` [Example 67, N-(4-(3-amino-1H-pyrazolo[4,3-b]pyridin-5-yl)-3-chlorophenyl)-3-methoxybenzenesulfonamide], the EC50 was determined as 2.32 µM.

As for `Cc1cc(S(=O)(=O)N[C@H]2CC[C@@](O)(C(F)(F)F)CC2)ccc1-c1ccc2[nH]nc(N)c2n1` [Example 68, 4-(3-amino-1H-pyrazolo[4,3-b]pyridin-5-yl)-N-((1r,4r)-4-hydroxy-4-(trifluoromethyl)cyclohexyl)-3-methylbenzenesulfonamide], the EC50 is 0.354 µM.

`Cc1cc(S(=O)(=O)N[C@H]2CC[C@@H](O)CC2)ccc1-c1ccc2[nH]nc(N)c2n1` [Example 69, 4-(3-amino-1H-pyrazolo[4,3-b]pyridin-5-yl)-N-((1s,4s)-4-hydroxycyclohexyl)-3-methylbenzenesulfonamide]: the EC50 worked out at 0.912 µM.

As to `Cc1cc(S(=O)(=O)N2CCC[C@H]2CO)ccc1-c1ccc2[nH]nc(N)c2n1` [Example 70, (S)-(1-((4-(3-amino-1H-pyrazolo[4,3-b]pyridin-5-yl)-3-methylphenyl)sulfonyl)pyrrolidin-2-yl)methanol], the EC50 was determined as 0.762 µM.

As to `Nc1n[nH]c2ccc(-c3ccc(S(=O)(=O)N4CC[C@H](O)C4)cc3Cl)nc12` [Example 71, (S)-1-((4-(3-amino-1H-pyrazolo[4,3-b]pyridin-5-yl)-3-chlorophenyl)sulfonyl)pyrrolidin-3-ol], the 50% effective concentration (EC50) was 3.53 µM.

In the case of `Nc1n[nH]c2ccc(-c3ccc(S(=O)(=O)NCc4ccccc4)cc3Cl)nc12` [Example 73, 4-(3-amino-1H-pyrazolo[4,3-b]pyridin-5-yl)-N-benzyl-3-chlorobenzenesulfonamide], the EC50 came to 3.53 µM.

`Nc1n[nH]c2ccc(-c3ccc(S(=O)(=O)N4CC(F)(F)C4)cc3Cl)nc12` [Example 74, 5-(2-chloro-4-((3,3-difluoroazetidin-1-yl)sulfonyl)phenyl)-1H-pyrazolo[4,3-b]pyridin-3-amine]: the EC50 is 2.03 µM.

Consider `CC(C)(C)NS(=O)(=O)c1ccc(-c2ccc3[nH]nc(N)c3n2)c(F)c1` [Example 75, 4-(3-amino-1H-pyrazolo[4,3-b]pyridin-5-yl)-N-tert-butyl-3-fluorobenzenesulfonamide], for which the EC50 was determined as 1.52 µM.

Turning to `Cc1cc(S(=O)(=O)N[C@H]2C[C@H](O)C2)ccc1-c1ccc2[nH]nc(N)c2n1` [Example 77, 4-(3-amino-1H-pyrazolo[4,3-b]pyridin-5-yl)-N-((1r,3r)-3-hydroxycyclobutyl)-3-methylbenzenesulfonamide], the EC50 was 0.777 µM.

With `Nc1n[nH]c2ccc(-c3ccc(NS(=O)(=O)c4ccc(C(F)(F)F)cc4)cc3Cl)nc12` [Example 78, N-(4-(3-amino-1H-pyrazolo[4,3-b]pyridin-5-yl)-3-chlorophenyl)-4-(trifluoromethyl)benzenesulfonamide], the EC50 is 2.44 µM.
